The values that follow come from article PMC6257762, “Isoquinolines from the Roots of Thalictrum flavum L. and Their Evaluation as Antiparasitic Compounds” (Molecules, 2010).

“And” between values parts separate entries of the source, which are not always exact repeats. Identical values can stand only once. Like-named read-outs stand apart in the source and are kept apart here.

Data set [1] has as its system Plasmodium falciparum FcB1 Colombia. The data set can be described thus: In vitro P. falciparum culture antimalarial activity assay. The data set is classed as cell-based. As to the method: 3.4. In vitro P. falciparum culture and activity assays
Antimalarial activity was evaluated on FcB1 Colombia strain of Plasmodium falciparum according to a previously described procedure.

Another data set has as its system Leishmania major. The data set can be described thus: In vitro leishmanicidal activity, promastigote susceptibility (Uptiblue micromethod). The format is cell-based. The following applies: promastigotes, MHOM/Il/81/BNI, 96 h at 26 °C. As for the experimental part: 3.5. In vitro leishmanicidal activity
Leishmania major (MHOM/Il/81/BNI) was cultivated at 26 °C in a Schneider’s insect medium (Sigma, St Quentin Fallavier, France) supplemented with 15% foetal bovine serum (FBS) (Sigma), penicillin (100 IU/mL) and streptomycin (50 µg/mL). Exponentially growing cells were maintained at 26 °C. Promastigote susceptibility testing was performed with the Uptiblue® micromethod previously described. Briefly, 100 µL of a […] promastigotes/mL suspension were placed into wells of a 96-well microplate (Nunc®). The cultures were exposed for 96 h at 26 °C to the antileishmanial drugs at the concentrations used above, except for meglumine antimoniate for which dilutions were 0.2, 2 and 20 mg·mL^-1. Four h before measurement, 10 µL of Uptiblue® were added. The fluorescence was measured at 590 nm with an excitation at 550 nm.

Details of data set [2]: method as in PMID 17109902. The following applies: quaternary protoberberines, as expected; cited from earlier work.
Another data set relates to MCR-5 cells. The experiment in a line: Cytotoxicity towards MCR-5 (MRC5) cells. The format is cell-based. As to the method: (§1) 3.3. Evaluations of cytotoxicity towards MCR-5 and KB cells
(§2) Cytotoxicities were evaluated at the ICSN-CNRS (Gif sur Yvette, France) on MRC5 and KB cells, in DMSO, at 10 and 1 µg/mL according to the procedure described by Moret et al..

The next data set deals with KB cells. The experiment in a line: Cytotoxicity towards KB cells. The data set is classed as cell-based. As to the method:
as §1, §2

The mark [3] stands for this setting: Plasmodium falciparum, FcB1 Colombia strain, read-out: Antimalarial IC50 Plasmodium falciparum FcB1 Colombia.
[4] abbreviates: Plasmodium falciparum, FCB1, read-out: Antimalarial IC50 Plasmodium falciparum FcB1 Colombia.

`COc1cc2cc3[n+](cc2cc1OC)CCc1cc2c(cc1-3)OCO2` [Pseudoberberine 12, pseudoberberine]: the half-maximal inhibitory concentration (IC50) in data set [1] (setting [3]) is 0.5 µg/mL and 1.3 µM; with Leishmania major (Leishmania major), 3.5 µg/mL and 9 µM. Moreover, in data set [2], the “Cytotoxicity (in words)” value is given as “cytotoxic”.

Consider (+)-thalicberine [(+)-Thalicberine 8], for which, in the data set on MCR-5 cells, the “Cytotoxicity MCR-5 cells 10 µg/mL” value is on record as 29. In the data set with KB cells, the “Cytotoxicity KB cells 10 µg/mL” value was 43. Further, in data set [1] (FcB1 Colombia strain), the “Antimalarial IC50 Plasmodium falciparum FcB1 Colombia” value was determined as 2.5 µg/mL. Moreover, in data set [1] (FcB1 Colombia strain, read-out: Antimalarial IC50 Plasmodium falciparum FcB1 Colombia), the IC50 worked out at 4.2 µM. Further, in the data set with Leishmania major, the IC50 came to 90 µM and the “Leishmanicidal IC50 Leishmania major” value is recorded as 55 µg/mL.

For `COc1ccc2cc1Oc1ccc(cc1)CC1c3cc(OC)c(OC)c(c3CCN1C)Oc1c(O)c(OC)cc3c1C(C2)NCC3` (single isomer, unassigned; (-)) [(-)-Northalrugosidine 3, (-)-northalrugosidine], in the data set with MCR-5 cells (human, 1 µg/mL), the “Cytotoxicity MCR-5 cells 1 µg/mL” value was 0. The “Cytotoxicity MCR-5 cells 10 µg/mL” value in the data set on MCR-5 cells (human, 10 µg/mL) stood at 77. Also, the IC50 is 2.7 µg/mL and 4.3 µM in data set [1] (setting [3]); 30 µg/mL and 48 µM with Leishmania major (Leishmania major).

Consider `COc1cc2c3c(c1O)Oc1c4c(cc(OC)c1OC)C(Cc1ccc(cc1)Oc1cc(ccc1O)CC3N(C)CC2)N(C)CC4` (single isomer, unassigned; (-)) [(-)-Thaligosidine 6, (-)-thaligosidine], for which, in the data set with MCR-5 cells (human, 1 µg/mL), the “Cytotoxicity MCR-5 cells 1 µg/mL” value was found to be 0. Moreover, the “Cytotoxicity MCR-5 cells 10 µg/mL” value in the data set on MCR-5 cells (human, 10 µg/mL) was 61. Further, the IC50 in data set [1] (setting [3]) is 1.2 µg/mL and 2 µM; in the data set with Leishmania major (Leishmania major), 38 µg/mL and 61 µM.

Regarding `COc1ccc2cc1Oc1ccc(cc1)CC1c3cc(OC)c(OC)c(c3CCN1C)Oc1c(OC)c(OC)cc3c1C(C2)NCC3` (single isomer, unassigned; (-)) [(-)-Northalidasine 2, (-)-northalidasine], the “Cytotoxicity MCR-5 cells 10 µg/mL” value in the data set on MCR-5 cells (human, 10 µg/mL) was 0. Also, the IC50 in data set [1] (setting [3]) is 3.4 µg/mL and 5.2 µM; with Leishmania major (Leishmania major), 27 µg/mL and 41 µM.

For the molecule `COc1cc(CCN(C)C)c2ccc3cc4c(c5c(=O)oc1c2c35)OCO4` [Thaliglucinone 10, thaliglucinone], in the data set on MCR-5 cells (MCR-5 (MRC5) cells, compound at 1 µg/mL in DMSO), the “Cytotoxicity MCR-5 cells 1 µg/mL” value was 21. In addition, the “Cytotoxicity MCR-5 cells 10 µg/mL” value in the data set on MCR-5 cells (MCR-5 (MRC5) cells, compound at 10 µg/mL in DMSO) was 79. Moreover, the IC50 in data set [1] (setting [4]) is 2.4 µg/mL; in data set [1] (setting [3]) it was 6.7 µM; in the data set on Leishmania major (Leishmania major) it was 63 µg/mL and 173 µM.

On to `COc1cc2c(cc1OC)-c1c(O)c(OC)c(OC)c3c1[C@H](C2)N(C)CC3` [(+)-Preocoteine 1, (+)-preocoteine], for which the “Cytotoxicity MCR-5 cells 10 µg/mL” value in the data set on MCR-5 cells (human, 10 µg/mL) is 20. In addition, the “Cytotoxicity KB cells 10 µg/mL” value with KB cells is given as 23. Also, the IC50 in data set [1] (setting [4]) was 0.5 µg/mL; in data set [1] (setting [3]), 1.3 µM; with Leishmania major (Leishmania major) it was > 100 µg/mL and > 100 µM.

`COc1cc2c(cc1OC)C(Cc1ccc(O)cc1)N(C)CC2` (single isomer, unassigned; (-)) [(-)-Armepavine 9, (-)-armepavine]: the “Cytotoxicity MCR-5 cells 10 µg/mL” value with MCR-5 cells (human, 10 µg/mL) worked out at 0. Moreover, in data set [1] (setting [3]), the IC50 is 3.6 µg/mL and 11.4 µM.

On to `COc1cc2c3c(c1OC)Oc1c(OC)c(OC)cc4c1C(Cc1ccc(O)c(c1)Oc1ccc(cc1)CC2N(C)CC3)NCC4` (single isomer, unassigned; (-)) [(-)-Northalfoetidine 5, (-)-northalfoetidine], for which the “Cytotoxicity MCR-5 cells 10 µg/mL” value with MCR-5 cells (human, 10 µg/mL) is 6. The IC50 in data set [1] (setting [3]) is 2.8 µg/mL and 4.5 µM; in the data set with Leishmania major (Leishmania major), 39 µg/mL and 63 µM.

Turning to `CCN(CC)CCCC(C)Nc1ccnc2cc(Cl)ccc12` (stereo not shown) [Chloroquine, reference compound], in data set [1] (setting [4]), the IC50 is 0.06 µg/mL and 100 nM.

On to `COc1cc2c3c(c1OC)Oc1c(OC)c(OC)cc4c1C(Cc1ccc(O)c(c1)Oc1ccc(cc1)CC2N(C)CC3)N(C)CC4` (single isomer, unassigned; (-)) [(-)-Thalfoetidine 4, (-)-thalfoetidine], for which, in the data set with MCR-5 cells (human, 1 µg/mL), the “Cytotoxicity MCR-5 cells 1 µg/mL” value turned out to be 0. In addition, in the data set with MCR-5 cells (human, 10 µg/mL), the “Cytotoxicity MCR-5 cells 10 µg/mL” value was determined as 62. In addition, the IC50 is 2.1 µg/mL and 3.3 µM in data set [1] (setting [3]); 17 µg/mL and 27 µM in the data set with Leishmania major (Leishmania major).

As to `COc1ccc2cc3[n+](cc2c1OC)CCc1cc2c(cc1-3)OCO2` [Berberine 11, berberine], the half-maximal inhibitory concentration (IC50) was 0.4 µg/mL and 900 nM in data set [1] (setting [3]); 13 µg/mL and 35 µM in the data set on Leishmania major (Leishmania major). In addition, in data set [2], the “Cytotoxicity (in words)” value was “cytotoxic”.

On to `COc1cc2c(cc1OC)-c1c3c(c(OC)c4c1[C@H](C2)NCC4)OCO3` [(+)-O-Methylcassythine 7, (+)-O-methylcassythine], for which, in the data set with MCR-5 cells (human, 1 µg/mL), the “Cytotoxicity MCR-5 cells 1 µg/mL” value is 4. Moreover, the “Cytotoxicity MCR-5 cells 10 µg/mL” value in the data set with MCR-5 cells (human, 10 µg/mL) amounted to 61. Further, the “Cytotoxicity KB cells 10 µg/mL” value in the data set on KB cells amounted to 49. Also, the figures for the IC50 in data set [1] (setting [4]) and in data set [1] (setting [3]) were 3.1 µg/mL and 8.6 µM, respectively.

Regarding `N=C(N)c1ccc(OCCCCCOc2ccc(C(=N)N)cc2)cc1` [Pentamidine, reference compound], in the data set with Leishmania major (Leishmania major), the IC50 is 28 µg/mL and 82 µM.

As a reminder, the IC50 is the point on the concentration scale where inhibition reaches its midpoint.
